Source: patent publication US20240025906A1 (NEURON23, INC., priority 2022, published 2024)

Key:
[1] = molecular target: T1, TYK2 JH2 (Homo sapiens, UniProt P29597); assay: TYK2 JH2 binding assay (KINOMEscan KdELECT competitive binding); settings: TYK2 JH2 domain, KINOMEscan KdELECT (Assay A); read-out: Biochemical TYK2_DiscoverX_JH2_BND_Kd
T1 construct: purchased DiscoverX (KINOMEscan KdELECT service); host or cells: E. coli BL21-derived (T7 phage display) or HEK-293
Method in brief: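 Kd values come from qPCR measurement of kinase retained on an immobilized-ligand resin after 1 h room-temperature competition with compound in an 11-point, 3-fold series.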

[2] = test system: JAK1/TYK2 pSTAT5 (Tyr694/699) in THP-1 cell line; assay: IFNa-stimulated JAK1/TYK2 pSTAT5 (Tyr694/699) inhibition cellular assay, AlphaLISA; type: cell-based; settings: Homo sapiens; THP-1 cells, IFNa-stimulated, AlphaLISA (Assay B); read-out: Cellular_THP1_IFNa-pSTATS_TYK2
Method in brief: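 Compound dilutions were dispensed first, and HBSS-suspended THP-1 cells were added on top (final top concentration 10000 nM, 6-fold series). After 1 h at 37 °C, IFNa (100 ng/mL as added) was applied for 30 min. Cells were then lysed and pSTAT5 was quantified by AlphaLISA.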

T1 sequence (P29597 589-875 limits assumed): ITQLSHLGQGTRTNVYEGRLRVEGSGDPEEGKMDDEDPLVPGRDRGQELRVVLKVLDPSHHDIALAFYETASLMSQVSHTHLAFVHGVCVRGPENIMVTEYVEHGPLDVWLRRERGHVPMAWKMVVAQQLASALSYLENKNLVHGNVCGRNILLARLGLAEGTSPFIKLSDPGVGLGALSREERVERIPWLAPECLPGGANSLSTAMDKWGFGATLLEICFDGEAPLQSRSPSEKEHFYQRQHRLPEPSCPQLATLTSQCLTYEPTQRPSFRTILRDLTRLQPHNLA

Structure (SMILES)	Kd [1] [nM]	IC50 [2] [nM]
CNc1ncc(-c2nc3cc(N4CCOC(C(C)(C)O)C4)ccc3o2)c2cc(NC(=O)C3CC3)ncc12 (centres unmarked) [Example 924, N-(5-(5-(2-(2-hydroxypropan-2-yl)morpholino)benzo[d]oxazol-2-yl)-8-(methylamino)-2,7-naphthyridin-3-yl)cyclopropanecarboxamide]	≤ 100	≤ 500
CNc1ncc(-c2nc3cc(N4CC(C)(O)C4)ccc3o2)c2cc(NC(=O)C3CC3)ncc12 [Example 927, N-(5-(5-(3-hydroxy-3-methylazetidin-1-yl)benzo[d]oxazol-2-yl)-8-(methylamino)-2,7-naphthyridin-3-yl)cyclopropanecarboxamide]	≤ 100	≤ 500
CNc1ncc(-c2nc3cnc(C)cc3o2)c2cc(NC(=O)C3CC3)ncc12 [Example 928, N-(8-(methylamino)-5-(6-methyloxazolo[4,5-c]pyridin-2-yl)-2,7-naphthyridin-3-yl)cyclopropanecarboxamide]	≤ 100	≤ 500
CNc1ncc(-c2nc3cc(N4CCOCC4=O)ccc3o2)c2cc(NC(=O)C3CC3)ncc12 [Example 929, N-(8-(methylamino)-5-(5-(3-oxomorpholino)benzo[d]oxazol-2-yl)-2,7-naphthyridin-3-yl)cyclopropanecarboxamide]	≤ 100	≤ 500
CNc1ncc(-c2nc3cc(OC)ccc3s2)c2cc(NC(=O)C3CC3)ncc12 [Example 930, N-(5-(5-methoxybenzo[d]thiazol-2-yl)-8-(methylamino)-2,7-naphthyridin-3-yl)cyclopropanecarboxamide]	≤ 100	≤ 500
C=C(C)c1ccc2oc(-c3cnc(NC)c4cnc(NC(=O)C5CC5)cc34)nc2c1 [Example 931, N-(8-(methylamino)-5-(5-(prop-1-en-2-yl)benzo[d]oxazol-2-yl)-2,7-naphthyridin-3-yl)cyclopropanecarboxamide]	≤ 100	≤ 500
CNc1ncc(-c2nc3cc(N4CC(C)(F)C4)ccc3o2)c2cc(NC(=O)C3CC3)ncc12 [Example 932, N-(5-(5-(3-fluoro-3-methylazetidin-1-yl)benzo[d]oxazol-2-yl)-8-(methylamino)-2,7-naphthyridin-3-yl)cyclopropanecarboxamide]	≤ 100	≤ 500
CNc1ncc(-c2nc3ccc(OC)cc3s2)c2cc(NC(=O)C3CC3)ncc12 [Example 933, N-(5-(6-methoxybenzo[d]thiazol-2-yl)-8-(methylamino)-2,7-naphthyridin-3-yl)cyclopropanecarboxamide]	≤ 100	≤ 500
CNc1ncc(-c2nc3cc(N4CC5(CCOCC5)C4)ccc3o2)c2cc(NC(=O)C3CC3)ncc12 [Example 934, N-(5-(5-(7-oxa-2-azaspiro[3.5]nonan-2-yl)benzo[d]oxazol-2-yl)-8-(methylamino)-2,7-napththyridin-3-yl)cyclopropanecarboxamide]	≤ 100	≤ 500
CNc1ncc(-c2nc3cc(OC)cc(F)c3o2)c2cc(NC(=O)C3CC3)ncc12 [Example 937, N-(5-(7-fluoro-5-methoxybenzo[d]oxazol-2-yl)-8-(methylamino)-2,7-naphthyridin-3-yl)cyclopropanecarboxamide]	≤ 100	≤ 500
CNc1ncc(-c2nc3cc(N4CCCC(F)(F)C4)ccc3o2)c2cc(NC(=O)C3CC3)ncc12 [Example 938, N-[5-[5-(3,3-difluoro-1-piperidyl)-1,3-benzoxazol-2-yl]-8-(methylamino)-2,7-naphthyridin-3-yl]cyclopropanecarboxamide]	≤ 100	≤ 500
CNc1ncc(-c2nc3cc(-c4ccn(C)n4)ccc3o2)c2cc(NC(=O)C3CC3)ncc12 [Example 939, N-(5-(5-(1-methyl-1H-pyrazol-3-yl)benzo[d]oxazol-2-yl)-8-(methylamino)-2,7-naphthyridin-3-yl)cyclopropanecarboxamide]	≤ 100	≤ 500
CNc1ncc(-c2nc3cc(-c4cnn(C)n4)ccc3o2)c2cc(NC(=O)C3CC3)ncc12 [Example 940, N-(5-(5-(2-methyl-2H-1,2,3-triazol-4-yl)benzo[d]oxazol-2-yl)-8-(methylamino)-2,7-naphthyridin-3-yl)cyclopropanecarboxamide]	≤ 100	≤ 500
CNc1ncc(-c2nc3cc(OCC(C)(C)F)ccc3o2)c2cc(NC(=O)C3CC3)ncc12 [Example 941, N-[5-[5-(2-fluoro-2-methyl-propoxy)-1,3-benzoxazol-2-yl]-8-(methylamino)-2,7-naphthyridin-3-yl]cyclopropanecarboxamide]	≤ 100	≤ 500
CNc1ncc(-c2nc3cc(N4CCC(F)(F)C4)ccc3o2)c2cc(NC(=O)C3CC3)ncc12 [Example 942, N-(5-(5-(3,3-difluoropyrrolidin-1-yl)benzo[d]oxazol-2-yl)-8-(methylamino)-2,7-naphthyridin-3-yl)cyclopropanecarboxamide]	≤ 100	≤ 500
CNc1ncc(-c2nc3cc(N4CCC(F)C4)ccc3o2)c2cc(NC(=O)C3CC3)ncc12 (centres unmarked) [Example 943, N-(5-(5-(3-fluoropyrrolidin-1-yl)benzo[d]oxazol-2-yl)-8-(methylamino)-2,7-naphthyridin-3-yl)cyclopropanecarboxamide]	≤ 100	≤ 500
CNc1ncc(-c2nc3cc([C@]45C[C@H](CO4)C5)ccc3o2)c2cc(NC(=O)C3CC3)ncc12 [Example 946, N-(5-(5-((1s,4s)-2-oxabicyclo[2.1.1]hexan-1-yl)benzo[d]oxazol-2-yl)-8-(methylamino)-2,7-naphthyridin-3-yl)cyclopropanecarboxamide]	≤ 100	≤ 500
CNc1ncc(-c2nc3cc(C4(C)CCCO4)ccc3o2)c2cc(NC(=O)C3CC3)ncc12 (centres unmarked) [Example 947, N-(8-(methylamino)-5-(5-(2-methyltetrahydrofuran-2-yl)benzo[d]oxazol-2-yl)-2,7-naphthyridin-3-yl)cyclopropanecarboxamide]	≤ 100	≤ 500

Second part, the compound after the results:

Kd [1] [nM]	IC50 [2] [nM]	Structure (SMILES)
≤ 100	≤ 500	[2H]C([2H])([2H])n1c(C#Cc2cnc(NC)c3cnc(NC(=O)C4CC4)cc23)cnc1C [Example 902, N-(5-((2-methyl-1-(methyl-d3)-1H-imidazol-5-yl)ethynyl)-8-(methylamino)-2,7-naphthyridin-3-yl)cyclopropanecarboxamide]
≤ 100	≤ 500	[2H]C([2H])([2H])Nc1ncc(C#Cc2cn(C)c(C)n2)c2cc(NC(=O)[C@H]3C[C@H]3C)ncc12 [Example 903, (1S,2R)-N-(5-((1,2-dimethyl-1H-imidazol-4-yl)ethynyl)-8-((methyl-d3)amino)-2,7-naphthyridin-3-yl)-2-methylcyclopropane-1-carboxamide]
≤ 100	≤ 500	CNc1ncc(C#Cc2ccc(OC)c(C)n2)c2cc(NC(=O)C3CC3)ncc12 [Example 904, N-(5-((5-methoxy-6-methylpyridin-2-yl)ethynyl)-8-(methylamino)-2,7-naphthyridin-3-yl)cyclopropanecarboxamide]
≤ 100	≤ 500	CNc1ncc(-c2nc3ccc(N4CCOCC4)cc3o2)c2cc(NC(=O)C3CC3)nnc12 [Example 913, N-(8-(methylamino)-5-(6-morpholinobenzo[d]oxazol-2-yl)pyrido[3,4-c]pyridazin-3-yl)cyclopropanecarboxamide]
≤ 100	≤ 500	CNc1ncc(-c2nc3cc(N4CCOCC4)ccc3o2)c2cc(NC(=O)C3CC3)nnc12 [Example 914, N-(8-(methylamino)-5-(5-morpholinobenzo[d]oxazol-2-yl)pyrido[3,4-c]pyridazin-3-yl)cyclopropancarboxamide]
≤ 100	> 500	CNc1ncc(C#Cc2ccc(OC3CN(C(C)=O)C3)cc2)c2cc(NC(=O)C3(F)CC3)nnc12 [Example 915, N-(5-((4-((1-acetylazetidin-3-yl)oxy)phenyl)ethynyl)-8-(methylamino)pyrido[3,4-c]pyridazin-3-yl)-1-fluorocyclopropane-1-carboxamide]
≤ 100	≤ 500	CNc1ncc(-c2nc3cc(N4CCC(F)CC4)ccc3o2)c2cc(NC(=O)C3CC3)ncc12 [Example 916, N-[5-[5-(4-fluoro-1-piperidyl)-1,3-benzoxazol-2-yl]-8-(methylamino)-2,7-naphthyridin-3-yl]cyclopropanecarboxamide]
≤ 100	≤ 500	CNc1ncc(-c2nc3cc(N4CCCC4)ccc3o2)c2cc(NC(=O)C3CC3)ncc12 [Example 917, N-[8-(methylamino)-5-(5-pyrrolidin-1-yl-1,3-benzoxazol-2-yl)-2,7-naphthyridin-3-yl]cyclopropanecarboxamide]
≤ 100	≤ 500	CNc1ncc(-c2nc3cc(N4CCOC(COC)C4)ccc3o2)c2cc(NC(=O)C3CC3)ncc12 (centres unmarked) [Example 918, N-(5-(5-(2-(methoxymethyl)morpholino)benzo[d]oxazol-2-yl)-8-(methylamino)-2,7-naphthyridin-3-yl)cyclopropanecarboxamide]
≤ 100	≤ 500	CNc1ncc(-c2nc3cc(N4CCOC(C(F)(F)F)C4)ccc3o2)c2cc(NC(=O)C3CC3)ncc12 (centres unmarked) [Example 921, N-(8-(methylamino)-5-(5-(2-(trifluoromethyl)morpholino)benzo[d]oxazol-2-yl)-2,7-naphthyridin-3-yl)cyclopropanecarboxamide]
